From patent US6303596A, “Use of taurolidine for treatment of leukemias” (priority 2000, dated 2001) come the findings set out here.

Holding throughout (type): cell-based, human
One experiment relates to ECV304. The experiment can be described thus: TUNEL / propidium iodide flow cytometry, ECV304. Conditions: ECV304, 6 hours after treatment. On the procedure: In the second method, DNA fragmentation was detected via TUNEL assay according to the manufacturer's instructions. With this methodology, 2×10^6 cells were fixed with 2% paraformaldehyde, permeabilized with 0.1% Triton X-100/0.1% citrate, incubated at 37° C. with terminal deoxynucleotidyl transferase and FITC-dUTP, rinsed and analyzed by flow cytometry. Enhanced FITC signal indicates apoptosis-specific DNA fragmentation. Gavriali, et al, "Identification of programmed cell death in situ via specific labeling of nuclear DNA fragmentation," J Cell Biol 119:493 (1992). Parallel aliquots of unfixed cells were treated with PI and FITC-conjugated anti-CD14 and analyzed by flow cytometry, in order to identify cells with permeable cell membranes (since PI binds to DNA but is excluded from cells with intact plasma membranes) and also to determine the cell-specificity of the apoptotic signal.
In another study, TUNEL assays were performed on all cell lines 6 hours after cells were initially exposed to taurolidine (cells were treated for 4 hours, rinsed, and then incubated for 2 more hours before TUNEL assay was performed).
. Taurolidine and anisomycin induced apoptosis in MM6, HL-60, and Jurkat cells (Table VIII). MM6 and HL-60 cells were similarly effected, with >80% TUNEL-positive cells after 6 hours. […]
Data are percent of total cell-size events, and are expressed as mean ± […]
A general note: A flow cytometer gives signals particle by particle.

In another experiment the test system is GM5387. The experiment in a line: subcellular-sized events by flow cytometry, GM5387. Conditions: GM5387, after taurolidine treatment. The procedure: Less than 0.1% of ECV304 or GM5387 cells were TUNEL-positive 6 hours after treatment with taurolidine or anisomycin (Table VIII). Therefore, neither of these agents induce rapid DNA fragmentation in these cell types. However, there was approximately a 70% increase in the number of subcellular-sized events recorded by flow cytometry after taurolidine treatment of these cells, indicating some effect of taurolidine on cell integrity. These cell fragments were not stained by propidium iodide, consistent with them being apoptotic bodies.

A further experiment relates to REH cells. The experiment in a line: trypan blue exclusion, REH. Particulars: 25 μg/ml taurolidine, versus MM6, K562, Jurkat. On the procedure: FIGS. 8A and 8B depict cell viability and growth rates for REH cell line following taurolidine treatment, in terms of % trypan blue negative cells and % cell number, respectively. Cells were treated with various concentrations of taurolidine for 4 hours in AIM-V+0.01% BCS. After aliquots were collected for LDH assay, the remainder of the culture was rinsed in HBSS and resuspended in RPMI+10% BCS without taurolidine. Counts of trypan blue-negative cells (FIG. 8A), and total cell number (FIG. 8B), were recorded daily thereafter (with the measurement at Day 1 being made immediately after the 4 hour taurolidine treatment). […] Doubling times were determined under each condition, and expressed as a percentage of the rate of doubling of untreated cells. […]
In these experiments, integrity of cell membranes following taurolidine treatment was assessed by exclusion of trypan blue and by measuring the release of LDH in MM6, K-562, HL-60, and REH cells. […] A parallel aliquot of cells was lysed by three cycles of freeze/thaw and the quantity of LDH released was taken to be 100%. […]
HL-60 cells treated with 50 μl taurolidine. In these samples, LDH present in the culture medium was 8.3±2.3% of that released by completely lysed cells, compared with 2.3±0.8% measured in control cultures. […]

Another experiment relates to GM5387 (fibroblasts). The experiment can be described thus: trypan blue exclusion, GM5387. Conditions: GM5387, after taurolidine treatment. On the procedure: FIGS. 11A and 11B depict cell viability and growth rates for GM5387 cell line following taurolidine treatment, in terms of % trypan blue negative cells and % cell number, respectively. Cells were treated with various concentrations of taurolidine for 4 hours in AIM-V+0.01% BCS. After aliquots were collected for LDH assay, the remainder of the culture was rinsed in HBSS and resuspended in RPMI+10% BCS without taurolidine. Counts of trypan blue-negative cells (FIG. 11A), and total cell number (FIG. 11B), were recorded daily thereafter (with the measurement at Day 1 being made immediately after the 4 hour taurolidine treatment). Conditions were: no treatment (open circles); 25 μg/ml taurolidine (closed circles); 50 μg/ml taurolidine (open squares); 100 μg/ml taurolidine (closed squares); and vehicle alone (closed triangles). Doubling times were determined under each condition, and expressed as a percentage of the rate of doubling of untreated cells. These values are located to the right of the growth curves in (FIG. 11B). […]
HL-60 cells treated with 50 μl taurolidine. In these samples, LDH present in the culture medium was 8.3±2.3% of that released by completely lysed cells, compared with 2.3±0.8% measured in control cultures. […] After 4 hour treatment, cells were rinsed and returned to growth medium and monitored for viability and growth over the following 3 days. […]

The structures appear in SMILES notation.

In the case of `O=S1(=O)CCN(CN2CCS(=O)(=O)NC2)CN1` [taurolidine, 4,4'-methylenebis(perhydro-1,2,4-thiadiazin 1,1-dioxide)], the “DNA fragmentation (TUNEL positivity)” value in the experiment with ECV304 was “did not demonstrate evidence for fragmentation of DNA”. In the experiment with GM5387, the “increase in the number of subcellular-sized events” value was roughly 70%. For the same compound, the “trypan blue staining after treatment, sensitivity” value in the experiment with REH cells is listed as “more sensitive”. The “trypan blue staining during 4 day growth” value was “did not demonstrate a significant increase in trypan blue staining” in the experiment on GM5387 (fibroblasts) and “cells remained trypan blue negative” in the experiment on GM5387 (fibroblasts) (listed as Taurolidine).
